{"source": "paper PMC10503797", "about": "“Allosteric modulator potentiates β2AR agonist–promoted bronchoprotection in asthma models” (The Journal of Clinical Investigation, 2023)", "key": {"C57BL/6J naive mice [1]": {"test_system": "C57BL/6J naive mice", "test": "In vivo bronchoprotection protocol, methacholine-induced airway constriction (flexiVent)", "set-up": "Newtonian resistance (Rn): unit not given here", "conditions": "for Newtonian resistance (Rn): Cmpd-6 10 mg/kg i.v., 10 mg/kg", "experimental": "(§1) For the bronchoprotection protocol (A), bronchospasm was induced by i.v. administration of methacholine (25, 50, 100, 200, and 400 μg/kg). […] General Linear Model repeated measures ANOVA with Tukey’s posthoc test was used to determine the differences of airway responsiveness between DMSO- and Cmpd-6–treated conditions.\n(§2) Airway hyperresponsiveness (AHR) was measured using the forced oscillation technique as described previously ([42]). […] For the bronchoprotection protocol, bronchospasm was induced by jugular vein i.v. administration of increasing doses of methacholine (25, 50, 100, 200, 400 μg/kg). […] Mice were ventilated with 100% oxygen at 150 breaths per minute, constant volume of 8 mL/kg and a 3 cm H2O positive end–expiratory pressure using a computer-controlled small animal ventilator (flexiVent, SCIREQ). The total lung impedance signal collected contained information about the resistance and elastance properties of the lung from which Newtonian resistance (Rn), a good indicator of the luminal diameter of the conducting airways, was calculated using the constant phase model. The heart rate data acquired using EKG electrodes was monitored to assess mouse viability and analgesia throughout the bronchoconstrictor protocols."}, "[2]": {"test": "Solubility by formation of precipitates under the microscope", "type": "physicochemical", "experimental": "*Solubility was determined by formation of precipitates observed under the microscope. **Cell […]\nbinds an intracellular region of the β2AR. ***Log P, Log of the Partition coefficient that was calculated using ChemDraw Professional (version 22.2, PerkinElmer). DMSO, dimethyl […]\n(1 picture or pasted object on this page, not shown here)"}, "murine V133F mutant β2AR": {"target": "T1, murine V133F mutant β2AR (Mus musculus, UniProt P18762, V133F)", "T1 construct": "expressed in transfected cells; HEK293 GloSensor cells (cAMP assay)", "T1 sequence (P18762 whole entry V133F)": "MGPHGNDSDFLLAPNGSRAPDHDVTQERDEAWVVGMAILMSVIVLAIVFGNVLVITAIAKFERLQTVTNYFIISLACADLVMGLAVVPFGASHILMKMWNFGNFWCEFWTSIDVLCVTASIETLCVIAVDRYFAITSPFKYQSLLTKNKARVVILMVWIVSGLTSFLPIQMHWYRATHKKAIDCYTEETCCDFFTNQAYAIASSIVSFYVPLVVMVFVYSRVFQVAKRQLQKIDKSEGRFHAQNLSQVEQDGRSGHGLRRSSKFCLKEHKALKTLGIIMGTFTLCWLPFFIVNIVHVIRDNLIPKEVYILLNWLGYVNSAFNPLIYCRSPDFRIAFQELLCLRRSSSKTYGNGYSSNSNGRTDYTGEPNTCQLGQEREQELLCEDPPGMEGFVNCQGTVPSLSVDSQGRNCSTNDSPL", "test": "GloSensor cAMP, constitutive activity of overexpressed murine V133F mutant β2AR", "type": "cell-based", "conditions": "Cmpd-6 at 5 μM, no orthosteric agonist"}, "WT murine β2AR": {"target": "WT murine β2AR (Mus musculus, UniProt P18762)", "sequence (P18762 whole entry)": "as the sequence (P18762 whole entry V133F) above, with F133V counted along it", "test": "125I-CYP radioligand competition binding, WT murine β2AR", "conditions": "WT Cmpd-6", "procedure": "(§3) Statistical analyses were performed using 1-way ANOVA, repeated (related) measures with Tukey’s posthoc test."}, "V133F mutant murine β2AR": {"target": "V133F mutant murine β2AR (Mus musculus, UniProt P18762, V133F)", "sequence (P18762 whole entry V133F)": "as the sequence (P18762 whole entry V133F) above", "test": "125I-CYP radioligand competition binding, V133F mutant murine β2AR", "conditions": "V133F Cmpd-6", "procedure": "as §3"}, "C57BL/6J naive mice [3]": {"test_system": "C57BL/6J naive mice", "test": "In vivo bronchodilation protocol, albuterol in methacholine-preconstricted airways (flexiVent)", "conditions": "Cmpd-6 10 mg/kg i.v.; methacholine […] + albuterol 1-30 μg/kg", "experimental": "as §1, §2"}, "guinea pig β2AR": {"target": "guinea pig β2AR (Cavia porcellus, UniProt Q8K4Z4)", "sequence (Q8K4Z4 whole entry)": "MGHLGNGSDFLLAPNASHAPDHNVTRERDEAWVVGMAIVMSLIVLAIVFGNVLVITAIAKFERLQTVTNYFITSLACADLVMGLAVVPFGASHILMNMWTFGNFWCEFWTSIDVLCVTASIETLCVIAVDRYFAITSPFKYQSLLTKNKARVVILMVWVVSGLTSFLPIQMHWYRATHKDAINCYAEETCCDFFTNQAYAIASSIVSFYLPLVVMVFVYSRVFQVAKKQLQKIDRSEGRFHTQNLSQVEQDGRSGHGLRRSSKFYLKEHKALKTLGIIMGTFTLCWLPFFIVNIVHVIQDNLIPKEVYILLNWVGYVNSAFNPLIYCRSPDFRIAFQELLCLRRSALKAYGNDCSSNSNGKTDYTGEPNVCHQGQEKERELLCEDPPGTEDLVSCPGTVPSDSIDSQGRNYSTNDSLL", "test": "GloSensor cAMP, constitutive activity of overexpressed guinea pig β2AR"}, "murine WT β2AR": {"target": "T2, murine WT β2AR (Mus musculus, UniProt P18762)", "T2 construct": "expressed in transfected cells; HEK293 GloSensor cells (cAMP assay)", "test": "GloSensor cAMP, constitutive activity of overexpressed murine WT β2AR", "type": "cell-based"}}, "note": "Where “and” joins values, the source holds several entries; their conditions need not be identical. Equal values may be shown once.", "data": [{"compound": "COc1ccc(Sc2ccc(S(=O)(=O)N(C)C(C)C)cc2C(=O)N[C@H](CC(N)=O)Cc2ccc(C(C)(C)C)cc2)cc1", "note": "[Cmpd-6]", "values": [{"measurement": "Bronchoprotective effect against methacholine-induced airway resistance", "setting": "C57BL/6J naive mice [1]; Cmpd-6 10 mg/kg i.v. 10 minutes before methacholine", "result": "no bronchoprotective effect"}, {"measurement": "Newtonian resistance (Rn)", "setting": "C57BL/6J naive mice [1]; Mch 0 μg/kg", "result": "0.362 and 0.310 and 0.287 and 0.300 and 0.311"}, {"measurement": "Newtonian resistance (Rn)", "setting": "C57BL/6J naive mice [1]; Mch 25 μg/kg", "result": "0.550 and 0.482 and 0.346 and 0.471 and 0.465"}, {"measurement": "Newtonian resistance (Rn)", "setting": "C57BL/6J naive mice [1]; Mch 50 μg/kg", "result": "0.728 and 0.671 and 0.387 and 0.670 and 0.609"}, {"measurement": "Newtonian resistance (Rn)", "setting": "C57BL/6J naive mice [1]; Mch 100 μg/kg", "result": "0.886 and 0.904 and 0.565 and 0.976 and 0.931"}, {"measurement": "Newtonian resistance (Rn)", "setting": "C57BL/6J naive mice [1]; Mch 200 μg/kg", "result": "1.570 and 1.261 and 0.919 and 1.518 and 1.725"}, {"measurement": "Newtonian resistance (Rn)", "setting": "C57BL/6J naive mice [1]; Mch 400 μg/kg", "result": "1.986 and 1.405 and 1.093 and 1.461 and 1.642"}, {"measurement": "Solubility", "setting": "[2]; Aqueous", "result": 0.032, "unit": "mM"}, {"measurement": "Solubility", "setting": "[2]; DMSO", "result": 100, "unit": "mM"}, {"measurement": "cAMP level (% of ISO-stimulated maximal response)", "setting": "murine V133F mutant β2AR", "result": "45.8463% and 58.5082% and 46.5958% and 56.3694%"}, {"measurement": "125I-CYP binding (% of maximal)", "setting": "WT murine β2AR; log[ISO] -4 M", "result": "0.36% and 0.2162% and 0.04816% and -0.00042%"}, {"measurement": "125I-CYP binding (% of maximal)", "setting": "WT murine β2AR; log[ISO] -4.49485 M", "result": "1.8839% and 1.834% and 1.807% and 2.135%"}, {"measurement": "125I-CYP binding (% of maximal)", "setting": "WT murine β2AR; log[ISO] -5.09691 M", "result": "4.237% and 3.492% and 3.782% and 5.55%"}, {"measurement": "125I-CYP binding (% of maximal)", "setting": "WT murine β2AR; log[ISO] -5.69897 M", "result": "11.5444% and 11.0871% and 11.3959% and 13.7676%"}, {"measurement": "125I-CYP binding (% of maximal)", "setting": "WT murine β2AR; log[ISO] -6.30103 M", "result": "26.4647% and 27.054% and 29.2061% and 34.2195%"}, {"measurement": "125I-CYP binding (% of maximal)", "setting": "WT murine β2AR; log[ISO] -6.90309 M", "result": "53.3668% and 53.0846% and 55.6007% and 58.7138%"}, {"measurement": "125I-CYP binding (% of maximal)", "setting": "WT murine β2AR; log[ISO] -7.50515 M", "result": "77.7987% and 78.0629% and 80.5466% and 83.0218%"}, {"measurement": "125I-CYP binding (% of maximal)", "setting": "WT murine β2AR; log[ISO] -8.10721 M", "result": "94.1342% and 94.186% and 93.5984% and 92.8613%"}, {"measurement": "125I-CYP binding (% of maximal)", "setting": "WT murine β2AR; log[ISO] -8.70927 M", "result": "97.914% and 99.3549% and 97.9296% and 99.6433%"}, {"measurement": "125I-CYP binding (% of maximal)", "setting": "WT murine β2AR; log[ISO] -9.31133 M", "result": "100.454% and 99.5549% and 102.315% and 101.138%"}, {"measurement": "125I-CYP binding (% of maximal)", "setting": "WT murine β2AR; log[ISO] -9.91339 M", "result": "102.683% and 102.302% and 101.203% and 102.316%"}, {"measurement": "125I-CYP binding (% of maximal)", "setting": "WT murine β2AR; no ISO competitor", "result": "100.129% and 100.082% and 100.868% and 101.552%"}, {"measurement": "125I-CYP binding (% of maximal)", "setting": "V133F mutant murine β2AR; log[ISO] -4 M", "result": "0.3208% and 0.5206% and 0.2622% and 0.2602%"}, {"measurement": "125I-CYP binding (% of maximal)", "setting": "V133F mutant murine β2AR; log[ISO] -4.49485 M", "result": "0.9301% and 1.21% and 0.9752% and 0.9507%"}, {"measurement": "125I-CYP binding (% of maximal)", "setting": "V133F mutant murine β2AR; log[ISO] -5.09691 M", "result": "1.3005% and 2.025% and 1.333% and 1.6451%"}, {"measurement": "125I-CYP binding (% of maximal)", "setting": "V133F mutant murine β2AR; log[ISO] -5.69897 M", "result": "2.898% and 2.7378% and 2.508% and 2.41%"}, {"measurement": "125I-CYP binding (% of maximal)", "setting": "V133F mutant murine β2AR; log[ISO] -6.30103 M", "result": "7.927% and 6.9353% and 6.15% and 6.231%"}, {"measurement": "125I-CYP binding (% of maximal)", "setting": "V133F mutant murine β2AR; log[ISO] -6.90309 M", "result": "15.2419% and 14.4367% and 12.7613% and 13.8675%"}, {"measurement": "125I-CYP binding (% of maximal)", "setting": "V133F mutant murine β2AR; log[ISO] -7.50515 M", "result": "33.0019% and 29.7875% and 27.3642% and 30.2603%"}, {"measurement": "125I-CYP binding (% of maximal)", "setting": "V133F mutant murine β2AR; log[ISO] -8.10721 M", "result": "56.9542% and 53.726% and 49.4673% and 52.7312%"}, {"measurement": "125I-CYP binding (% of maximal)", "setting": "V133F mutant murine β2AR; log[ISO] -8.70927 M", "result": "79.9915% and 78.4975% and 76.4167% and 78.5935%"}, {"measurement": "125I-CYP binding (% of maximal)", "setting": "V133F mutant murine β2AR; log[ISO] -9.31133 M", "result": "94.8693% and 96.2982% and 94.9618% and 94.6481%"}, {"measurement": "125I-CYP binding (% of maximal)", "setting": "V133F mutant murine β2AR; log[ISO] -9.91339 M", "result": "100.835% and 99.7406% and 98.19% and 100.221%"}, {"measurement": "125I-CYP binding (% of maximal)", "setting": "V133F mutant murine β2AR; no ISO competitor", "result": "103.118% and 101.321% and 102.31% and 102.083%"}, {"measurement": "Effect on albuterol-mediated bronchodilation", "setting": "C57BL/6J naive mice [3]", "result": "no enhancing effect"}, {"measurement": "cAMP, constitutive activity of overexpressed β2AR (Figure 4C)", "setting": "guinea pig β2AR; Species of β2AR: Guinea pig", "result": "48.9693 and 55.2023 and 45.6589 and 55.6328"}, {"measurement": "PAM activity in cAMP production induced by constitutive activity of overexpressed guinea pig β2AR", "setting": "guinea pig β2AR; no orthosteric agonist, 20 minutes", "result": "equivalent to what we observed with the overexpressed human receptor"}, {"measurement": "cAMP level (% of ISO-stimulated maximal response)", "setting": "murine WT β2AR; Cmpd-6 at 5 μM, no orthosteric agonist, Murine WT", "result": "25.8782% and 38.8997% and 33.0059% and 37.3496%"}, {"measurement": "cAMP, constitutive activity of overexpressed β2AR (Figure 4C)", "setting": "murine WT β2AR; Species of β2AR: Murine", "result": "25.8782 and 38.8997 and 33.0059 and 37.3496"}]}]}
